Literature values as cited in paper PMC5133935, “Hydrostatin-TL1, an Anti-Inflammatory Active Peptide from the Venom Gland of Hydrophis cyanocinctus in the South China Sea” (International Journal of Molecular Sciences, 2016).

Tested on: TNF-α
Details: cited from earlier work
Source text: Snake-derived products have been used as traditional Chinese medicines for centuries in China; however, their mechanisms of action and active constituents are still unknown. Snake venom, which is a mixture of proteins and peptides, has various biological properties including antitumor, anti-inflammatory, anti-stroke, and analgesic activities. […] Venom from s ...

Substance: Cathelicidin-BF
- antimicrobial and anti-inflammatory properties: both antimicrobial and anti-inflammatory properties
- expression and secretion of TNF-α: decreases the expression and secretion of TNF-α
